The nature of series [1]: Human liver microsomal stability assay. In kind it is in vitro ADME. The conditions noted are these: both sexes, pH 7.4; pooled human liver microsomes 0.5 mg/mL, 3 μM compound, NADPH, 45 minute incubation. On the procedure:
Initial screening of candidate compounds was performed using in vitro assays to determine potency, metabolic stability and solubility in biologically relevant fluids. Potency was assessed using a viability assay based on the survival of the J774 macrophage cell line. […] Like osteoclasts, J774 macrophages are dependent on continued NFκB activation for survival, thereby providing a valuable screen for compounds with anti-inflammatory activity. Metabolic stability was measured by determining the rate of disappearance of compound in the presence of human liver microsomal preparations, as quantified by LC-MS/MS. Solubility was measured by equilibration of the compound in fasted state simulated intestinal fluid (FaSSIF) and quantified by HPLC.
Metabolic stability of APSAC derivatives was measured by determination of the rate of compound disappearance when incubated in the presence of human liver microsomes. Liver microsomes are prepared from the endoplasmic reticulum of hepatocytes and are the primary source of the most important enzymes (cytochrome P450) involved in drug metabolism. Study of drug stability in the presence of liver microsomes is accepted as a valuable model permitting rapid prediction of in vivo drug stability.
Human liver microsomes were obtained from a commercial source. Test compounds (3 μM) were incubated with pooled liver microsomes (male and female). Samples were incubated for a 45 minute period and removed at 5 time points and test compounds were analysed by LC-MS/MS.
The final incubation volume was 25 μL. A control incubation was included for each compound tested, where 0.1 M phosphate buffer pH 7.4 was added instead of NADPH. The control compounds testosterone and 7-hydroxycoumarin were included in each experiment and all incubations were performed singularly for each compound.
Each compound was incubated for 0, 5, 15, 30, and 45 minutes. The control (minus NADPH) was incubated for 45 minutes only. […] The incubation plates were centrifuged at 2500 rpm for 20 minutes at 4° C. to precipitate the protein.
Following protein precipitation, the sample supernatants were combined in cassettes of up to 4 compounds and analysed using standard LC-MS/MS conditions.
From a plot of the natural logarithm of the peak area ratio (i.e., the ratio of compound peak area:internal standard peak area) against time, the gradient of the line was determined. Subsequently, half-life and intrinsic clearance were calculated using the equations below: Eliminated rate constant (k)=(−gradient). […] Pharmacokinetics Studies
A general note: Microsomes from liver hold many membrane-bound enzymes, among them those of drug oxidation.

The subject of series [2] is J774 macrophages. Nature of the series: Alamar Blue macrophage J774 viability assay. Type of series: cell-based. The conditions noted are these: Mus musculus; J774 cells, 72 hours with compound, Alamar Blue readout; read-out: IC50. A general note: Resazurin is reduced to fluorescent resorufin, in cell work by metabolically active cells.

In general, half-life refers to how long it takes for the measured level to halve. Low values mean fast loss, high ones slow loss. The IC50 is the concentration needed to halve the response being measured. In the case of `O=S(=O)(N[C@H]1CC[C@@H](CO)CC1)c1ccc(-c2ccc(F)cc2F)cc1` [ABD781, 2′,4′-Difluoro-N-(cis-4-(hydroxymethyl)cyclohexyl)biphenyl-4-sulfonamide], in series [1], the half-life at 3 µM was found to be 41 min. Further, the IC50 in series [2] worked out at 300 nM.
Turning to `O=S(=O)(N[C@H]1CC[C@@H](CO)C1)c1ccc(-c2ccc(F)cc2F)cc1` [ABD773, 2′,4′-Difluoro-N-((1 S,3R)-3-(hydroxymethyl)cyclopentyl)biphenyl-4-sulfonamide], the half-life at 3 µM in series [1] was 54 min. Also, the half-maximal inhibitory concentration (IC50) in series [2] came to 130 nM.
